These results are taken from PubChem BioAssay AID179 (DTP/NCI, 2004).

Activity calls are given as the source filed them.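 Rule for the calls: active = compounds giving half or more protection of infected cells from virus-caused growth loss, again on retest; inactive = the rest.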 Bounds are passed on as bounds.

This assay has as its system CEM cells HIV-1 protection, formazan growth assay. Description: NCI AIDS Antiviral Assay. The conditions noted are these: for IC50: measured here: growth of uninfected CEM cells. A digest of the protocol:
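Soluble formazan readout of cell growth; CEM cells ± HIV-1; 5 drug concs. ≥50% protection → retest; ≥50% again = moderately active; reproducible 100% = confirmed active.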

What is called EC50 is the concentration that produces a half-maximal response. The term IC50 denotes the concentration that inhibits the measured activity by half. Low values mean inhibition by little substance, high ones a need for much substance. For the molecule `COc1ccccc1N1C(=O)CC(=O)N(C(=O)CCCCCCCCC(=O)N2C(=O)CC(=O)N(c3ccccc3OC)C2=S)C1=S`, the EC50 was more than 200 µM and the IC50 was found to be 95.5 µM.

For the molecule `O=C1C=C(Nc2ccccc2C(=O)CC(=O)C(=O)Nc2ccc(Cl)cc2)c2ccccc2C1=O`, the EC50 is more than 39.8 µM and the IC50 came to 2.19 µM. On to `COC(=O)NC(Nc1ccc(Cl)cc1Cl)(C(F)(F)F)C(F)(F)F`, for which the result was inactive. `CCCCCCCCCCCCCCCC(=O)OCC1OC(CO)(OC2OC(CO)C(O)C(O)C2O)C(O)C1O` (stereo unspecified): the EC50 is more than 200 µM and the IC50 was determined as 64.6 µM. Turning to `CCOC(=O)/C=C1\SC12C(C)(C)CCCC2(C)C`, the EC50 was more than 200 µM and the IC50 amounted to 61.7 µM. As to `Nc1nc(NCC2(CO)CC(CCc3ccccc3)C2)cc(=O)[nH]1` (stereo unspecified), the EC50 is more than 200 µM and the IC50 turned out to be 64.6 µM. For `CC(C)(C)C1=C(Br)C(OC(=O)C(F)(F)F)(C(C)(C)C)OP1(=O)c1ccccc1` (stereo unspecified) the same measures were more than 200 µM and 74.1 µM. As to `O=C(O)c1ccc(O)c(N=Nc2cc(S(=O)(=O)O)c3ccccc3c2O)c1`, the EC50 is more than 25.7 µM and the IC50 is more than 25.7 µM. For `CSCCC1OCC2OC(n3ccc(=O)[nH]c3=O)CC2N1O` (stereo unspecified), the EC50 is more than 200 µM and the half-maximal inhibitory concentration (IC50) was more than 200 µM. Regarding `O=NNc1nc(-c2cccnc2)nc2ccccc12`, the EC50 is more than 200 µM and the IC50 was more than 200 µM.

With `N[C@H](CCC(=O)NCP(=O)(O)O)C(=O)O`, the EC50 was more than 200 µM and the IC50 is more than 200 µM. On to `C(=N\Nc1nnc2c(n1)[nH]c1ccccc12)/c1ccccc1`, for which the EC50 is more than 200 µM and the IC50 is more than 200 µM. In the case of `COc1cc2nn(-c3ccccc3)nc2c2nonc12`, the EC50 was more than 200 µM and the 50% inhibitory concentration (IC50) is more than 200 µM. For `CC1(C)COC2(OC1)C1=NS(=O)(=O)CC13CCC2C3(C)C` (stereo unspecified), the EC50 is more than 57.5 µM and the IC50 was more than 57.5 µM. `CC(C)(C)C1C=C(Sc2ccccc2)C(=O)O1` (stereo unspecified): the EC50 is more than 120 µM and the IC50 came out at 21.4 µM.

With `NC1=C(O)c2cccc3cccc(c23)C1=O`, the outcome was inactive.

For `O=C(O)c1ccc(OCc2nc3cc(C(F)(F)F)ccc3nc2-c2ccccc2)cc1`, the EC50 was more than 200 µM and the IC50 was determined as 33.9 µM.

`CCN1C(=O)CS/C1=N/NC(=O)C(O)(c1ccccc1)C1C=CC=CC1` (stereo unspecified): the EC50 was more than 200 µM and the IC50 was more than 200 µM. Regarding `CCOC(=O)/C(C1=N[C@H](C(=O)OCC)CS1)=C(\O)c1ccccc1`, the EC50 was more than 145 µM and the IC50 was more than 145 µM.

For `O=[N+]([O-])c1ccc(N=P(c2ccccc2)(c2ccccc2)c2ccccc2)n2nnnc12`, the result was inactive. Take `CCCCCCCCCCCCCC(=O)O[C@H]1CC[C@H](NC(=O)[C@H](OC)[C@H](O)[C@@H](O)[C@H](O)/C=C/C(C)C)C(=O)NC1`: the EC50 was more than 2 µM and the IC50 came out at 0.00661 µM. Turning to `Nc1nccc(NCC2(CO)CCC2)n1`, the EC50 is more than 200 µM and the IC50 is more than 200 µM. As to `C#CCn1c(=O)c2cc(OC)c(OC)cc2n(CC#C)c1=O`, the outcome was inactive.

On to `CC1/C=C/[C@@]2(C)CCC(C(C)(C)O)C2C(O)C[C@](C)(O)/C=C/C1` (stereo partly specified), for which the outcome was inactive. For `O=[N+]([O-])c1ccc2cnn(C[N+]34CN5CN(CN(C5)C3)C4)c2c1`, the result was inactive. Consider `CCN(CC)c1cc2oc(=O)cc(C)c2cc1[N+](=O)[O-]`, for which the EC50 was more than 95.5 µM and the IC50 was determined as 40.7 µM. For the molecule `CO[C@H]1/C=C/O[C@@]2(C)Oc3c(C)c(O)c4c(O)c(c(/C=N/N5CCN(C)CC5)c(O)c4c3C2=O)NC(=O)/C(C)=C\C=C\[C@H](C)[C@H](O)[C@@H](C)[C@@H](O)[C@@H](C)[C@H](OC(C)=O)[C@@H]1C`, the EC50 was more than 151 µM and the IC50 was determined as 93.3 µM. For `C=C[C@@]1(C)CC2CC[C@]3(C)C(C)=CC(=O)CC3[C@]2(C)CC1O` (stereo partly specified), the EC50 was more than 200 µM and the IC50 amounted to 107 µM. As for `COc1ccc(/C=C/C(=O)c2cccc(C(=O)/C=C/c3ccc(OC)c(OC)c3)n2)cc1OC`, the EC50 was more than 200 µM and the IC50 was found to be 110 µM.

Take `CNC(=S)Nc1sc2c(c1C#N)CCCC2`: the EC50 turned out to be 148 µM and the IC50 worked out at 151 µM. As to `COCCCNC(=O)CC(=O)NCCCOC`, the EC50 was more than 1000 µM and the IC50 was more than 1000 µM. For the molecule `O=C(c1ccccc1)N1N=C(C(F)(F)F)CC1(O)C(F)(F)F` (stereo unspecified), the EC50 was more than 200 µM and the IC50 was more than 200 µM.

As to `O=C1OC(c2ccc3c(c2)OCO3)Sc2ccccc21` (stereo unspecified), the EC50 is more than 18.2 µM and the IC50 is more than 18.2 µM. `CC(=O)OCC(OC(C)=O)C(OC(C)=O)C(OC(C)=O)C(=O)CNn1c(-c2ccccc2)nc2ccc(Br)cc2c1=O` (stereo unspecified): the result was inactive.

With `CCCCCCC(O)CCCCCCCCCCC(=O)OCC(COC(=O)CCCCCCCCCCC(O)CCCCCC)OC(=O)CCCCCCCCCCC(O)CCCCCC` (stereo unspecified), the EC50 was more than 100 µM and the concentration for half-maximal inhibition (IC50) is more than 100 µM. `CCOC(=O)Nc1[nH]cc(-c2ccccc2)c1C#N`: the EC50 is more than 200 µM and the IC50 is more than 200 µM. In the case of `CC(CC(C)(C)[N+](C)(C)C)[N+](C)(C)C` (stereo unspecified), the EC50 was more than 200 µM and the IC50 was more than 200 µM. On to `Cc1[nH]n(-c2ccccc2)c(=O)c1C=NC(=S)C(N)=S`, for which the EC50 was more than 200 µM and the IC50 is 56.2 µM. For `CCOC(=O)C1(C/C=C/CBr)Cc2ccccc2C1=O` (stereo unspecified) the same measures were more than 200 µM and 1.66 µM. Turning to `C=Cc1ccc(C)[n+](C[Si](C)(C)O[Si](C)(C)C)c1`, the EC50 was more than 617 µM and the IC50 was found to be 309 µM. For `N#C/C(=C\c1cc(O)c(O)c([N+](=O)[O-])c1)C(=O)NCCCNC(=O)/C(C#N)=C/c1cc(O)c(O)c([N+](=O)[O-])c1` the same measures were more than 200 µM and 72.4 µM.

As for `O=C(c1ccc(OC(=O)c2ccccc2O)cc1)c1ccc(OC(=O)c2ccccc2O)cc1`, the outcome was inactive. Turning to `CCOC(CN(C)C(=O)Nc1cccc2ccccc12)OCC`, the EC50 was more than 200 µM and the IC50 stood at 178 µM.

Turning to `O=[N+]([O-])c1ccc2nc3ccc([N+](=O)[O-])cn3c2c1`, the EC50 was more than 200 µM and the half-inhibitory concentration (IC50) is more than 200 µM. On to `CCCC(=O)CC(C)C(=O)C(=O)NC12CC3CC(CC(C3)C1)C2` (stereo unspecified), for which the EC50 is more than 295 µM and the IC50 was more than 295 µM. For `O=S(=O)(/C=C/C=C/S(=O)(=O)c1ccccc1)c1ccccc1`, the EC50 was more than 2 µM and the IC50 was 0.251 µM. As for `COc1c2c(c(OC)c3c(=O)cc(C/C(=N/NC(=O)C[n+]4ccccc4)C(=O)Nc4cc(C)ccc4C)oc13)OCO2`, the EC50 is more than 30.9 µM and the IC50 was more than 30.9 µM. In the case of `Cc1c(C(=O)O)[nH]c(=O)[nH]c1=O`, the EC50 is more than 200 µM and the half-inhibitory concentration (IC50) is more than 200 µM. As to `COC(=O)C1=CC(=O)OC1(OO)c1ccccc1` (stereo unspecified), the EC50 is more than 200 µM and the IC50 worked out at 45.7 µM. With `CSC1(C)CC2C(CC1N1CCOCC1)C2(C)C` (stereo unspecified), the EC50 is more than 95.5 µM and the 50% inhibitory concentration (IC50) was more than 95.5 µM. As for `[O-][N+](=Nc1ccccc1CO)c1ccccc1CO`, the EC50 is 110 µM and the IC50 is more than 200 µM. As for `Cc1c2c(n(CC(c3ccccc3)c3ccccc3)c1C)NN=C(C#N)S2(=O)=O`, the EC50 is more than 200 µM and the IC50 was more than 100 µM.

Take `Cc1ccc(C)c(N2C(=O)C(=O)C(c3nc4ccccc4s3)C(=Nc3cccc4c(=O)[nH][nH]c(=O)c34)C2=O)c1` (stereo unspecified): the outcome was inactive. Take `CC(=O)N1CC2Nc3ccccc3C2CC1CO` (stereo unspecified): the result was inactive.

As for `OCc1cc2c(cn1)[nH]c1ccc(NCc3ccccc3)cc12`, the outcome was inactive. Turning to `COC(=O)C1CC23CCCN4CCC5(c6ccccc6N(C=O)C15CC2)C43` (stereo unspecified), the EC50 is more than 70.8 µM and the IC50 was more than 70.8 µM. On to `Clc1ccc(SSc2ccc(Cl)cc2Cl)c(Cl)c1`, for which the EC50 is more than 200 µM and the IC50 is 6.76 µM. Consider `CC(C)(C)c1ccn[nH]1.CC(C)(C)c1ccn[nH]1.[Cl-].[Cl-].[O]=[V][O-]`, for which the EC50 is more than 200 µM and the half-inhibitory concentration (IC50) is 35.5 µM.

In the case of `CCOC(=O)C1=C(O)CSC1=Nc1ccccc1`, the result was inactive. `CCOC(=O)c1ccc(C(=O)C(C(C)=O)C(=O)OC(C)(C)C)n1C` (stereo unspecified): the EC50 was 43.7 µM and the IC50 was determined as 74.1 µM. For `NC(=O)Nc1cc(O)ccc1N=Nc1ccc(S(=O)(=O)Nc2ccccn2)cc1` the same measures were more than 87.1 µM and more than 87.1 µM. As for `C=C(C)C1CC=C(C)[C@](O)(C2(O)C[C@H](C(=C)C)CC=C2C)C1` (stereo partly specified), the outcome was inactive. As for `CCCC[C@H]1CCN2C[C@@H](O)[C@@H](O)[C@H]2[C@@H]1O`, the EC50 is more than 200 µM and the IC50 is more than 200 µM. As to `COC(=O)[C@@H]1C(CO)[C@H](n2cc(C)c(=O)[nH]c2=O)C1(C)C` (stereo partly specified), the EC50 was more than 437 µM and the IC50 was more than 437 µM.

In the case of `CC#COS(=O)(=O)c1ccc(C)cc1`, the EC50 is more than 251 µM and the IC50 worked out at 110 µM. For the molecule `[Ni].c1c[nH]cn1.c1c[nH]cn1.c1c[nH]cn1.c1c[nH]cn1.c1c[nH]cn1.c1c[nH]cn1`, the EC50 was more than 66.1 µM and the IC50 is more than 66.1 µM. For `FC1OC2OC1C(OCc1ccccc1)C(OCc1ccccc1)C2OCc1ccccc1` (stereo unspecified), the EC50 was more than 6.03 µM and the IC50 is more than 6.03 µM. Turning to `c1ccc(OCc2nn3c(-c4ccccc4)nnc3s2)cc1`, the EC50 is more than 200 µM and the IC50 is more than 200 µM. For `NC(N)=N/N=C/c1c(Cl)nc2sccn12`, the EC50 was more than 200 µM and the IC50 is 38 µM. As to `OC[C@@H](O)[C@H]1NC[C@@H](O)[C@H]1O`, the EC50 was more than 200 µM and the IC50 was more than 200 µM.

For the molecule `COc1nc(N)c(N=CC(OC(C)=O)C(OC(C)=O)C(COC(C)=O)OC(C)=O)c(=O)n1C` (stereo unspecified), the EC50 is more than 200 µM.

As to `Cc1nc2c(N)n[nH]c(=O)n2n1`, the EC50 is more than 200 µM and the IC50 is more than 200 µM. With `ClC(Cl)(Cl)C1CCOC1n1nnc2ccccc21` (stereo unspecified), the outcome was inactive.
